Marks after values point to notes of the source that are not given here.
What was measured:
[1] = target: T1, 5-HT3 receptors expressed in guinea pig ileum (Cavia porcellus, UniProt O70212); set-up: method as in PMID 25847619; details: functional affinity; cited from earlier work
T1 construct: A segment (15 cm) of male guinea pig ileum was excised from the small intestine; from tissue; host or cells: isolated male guinea pig ileum segments in an organ bath
T1 sequence (O70212 20-490): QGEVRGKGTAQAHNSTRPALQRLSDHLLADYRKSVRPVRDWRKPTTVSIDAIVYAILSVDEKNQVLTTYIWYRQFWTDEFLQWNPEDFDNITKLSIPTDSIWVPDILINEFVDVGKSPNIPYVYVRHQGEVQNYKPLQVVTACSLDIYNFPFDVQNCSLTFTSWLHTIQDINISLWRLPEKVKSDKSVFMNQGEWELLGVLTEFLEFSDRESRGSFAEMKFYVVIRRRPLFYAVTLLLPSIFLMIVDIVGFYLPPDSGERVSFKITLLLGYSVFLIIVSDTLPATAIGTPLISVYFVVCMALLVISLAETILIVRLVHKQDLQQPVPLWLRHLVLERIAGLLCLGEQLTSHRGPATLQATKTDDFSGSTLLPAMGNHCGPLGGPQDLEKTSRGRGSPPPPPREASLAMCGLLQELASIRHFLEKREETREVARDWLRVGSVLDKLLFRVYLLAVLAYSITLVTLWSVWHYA

[2] = test system: corticosterone-treated mice; test: forced swim test, single administration, corticosterone model; assay type: in vivo; details: single 1 mg/kg i.p., 30 min before the test
Description: (§1) Mice were injected with corticosterone (s.c., 20 mg/kg) at random times during the light phase for consecutive 21 days (Fig. 1c). The dose and route of administration of corticosterone were based on studies performed by Zhao and colleagues. After the end of the procedure, next day 30 min before the test, corticosterone-treated mice were given (i.p.) saline, HBK-15 (1.25 mg/kg), fluoxetine (10 mg/kg), or ketamine (1 mg/kg) (Fig. 1c). Control mice received (i.p.) saline. The experimental groups consisted of eight randomly selected animals. We chose the dose of HBK-15 that was active in the chronic experiments (i.e., 1.25 mg/kg). The dose of ketamine was based on the studies performed by Pazini and colleagues. Animals were tested in the forced swim test and spontaneous locomotor activity test. After behavioral testing, mice were scarified and their hippocampi collected for biochemical analysis.
Forced swim test was performed according to the method described by Porsolt and colleagues and previously described. Mice were placed individually for 6 min in glass cylinders (height 25 cm, diameter 10 cm) containing […] (23–25 °C). The total time of immobility was recorded during the final 4 min of the test. The experiments were recorded and scored using aLab.io software by a trained observer blind to the treatments.

[3] = test system: corticosterone-treated mice; test: spontaneous locomotor activity, single administration; assay type: in vivo; details: single 1 mg/kg i.p. in corticosterone-treated mice; 4 min
Description: as §1, with “After the end of the procedure, next day 30 min before the test, corticosterone-treated mice were given (i.p.) saline, HBK-15 (1.25 mg/kg), fluoxetine (10 mg/kg), or ketamine (1 mg/kg) (Fig. 1c).” left out
The locomotor activity was performed as previously described. Locomotor activity was recorded individually for each mouse using activity cages made of clear Perspex (40 cm × 40 cm × 31 cm, Activity Cage 7441, Ugo Basile, Italy). The cages were supplied with I.R. horizontal beam emitters connected to a counter for the recording of light-beam interruptions. Each mouse was placed in a cage for a 30-min habituation period. After that time, the number of crossings of photobeams was measured for 6 min (chronic studies) or for 4 min (acute experiments; i.e., the time equal to the observation period in the forced swim test). The cages were disinfected with 70% ethanol after each mouse.

[4] = test system: BDNF level in the hippocampus; test: BDNF level in the hippocampus (ELISA), single administration; assay type: in vivo, mice; details: single 1 mg/kg i.p., corticosterone-treated mice
Description: as §1
After the behavioral assessments, mice were sacrificed, and their brains were rapidly removed and chilled in an ice-cold saline solution. The hippocampi were dissected on a cold plate, frozen, and stored at −80 °C until assay. On the day of experiments, tissues were thawed on ice and homogenized (1:9 w/v) in phosphate-buffered saline (4 °C) and protease inhibitor cocktail was added. The 10% homogenates were prepared and homogenized for 30 s with TissueRuptor homogenizer. The homogenized tissues were centrifuged (2500×g at 4 °C for 20 min), and the supernatants were collected for further assays.
Protein concentrations of BDNF and NGF in homogenates from hippocampi were determined using the enzyme-linked immunosorbent assay (ELISA) kits (BDNF: DZE201020014, SunRed Biotechnology Company; NGF: MBS825100, MyBioSource) according to the manufacturer’s instructions. […] The samples were analyzed in duplicates, and the mean concentrations were calculated. […] The intensity of the color was read at 450 nm. Absorbance was measured in a multifunction plate reader (POLARstar Omega, BMG Labtech, Germany). […]

Structure (SMILES)	5-HT3 receptor pK B ± S.E.M [1]	effect on corticosterone-induced increase in immobility [2]	Number of crossings ± S.E.M [3]	increase in BDNF level in the hippocampus compared with controls [4]
Cc1nccn1CC1CCc2c(c3ccccc3n2C)C1=O (stereo not shown) [Ondansetron]	7.111 ± 0.12^a			
CNC1(c2ccccc2Cl)CCCCC1=O (stereo not shown) [ketamine]		reversed an increase in immobility	248.7 ± 25.3	33%

Source: paper PMC5884906, “Single Administration of HBK-15—a Triple 5-HT1A, 5-HT7, and 5-HT3 Receptor Antagonist—Reverses Depressive-Like Behaviors in Mouse Model of Depression Induced by Corticosterone” (Molecular Neurobiology, 2017)
